Data as given in patent US20250382332A1, “NOVEL ALPHA-FACTOR BASED PEPTIDES WITH ANTIFUNGAL ACTIVITY” (INVAIO SCIENCES, INC., priority 2024, published 2025).
Peptide text beside a SMILES is read from it.

Tested on: Botrytis cinerea (B05.10)
Assay: Resazurin antifungal assay of 180 alpha-factor peptide variants towards Botrytis (Example 2)
Type: cell-based
Parameters: key to active against Botrytis at 15 μM / active against Botrytis at 10 μM: Peptides that showed greater than 90% inhibition were considered active against Botrytis
Conditions: for Inhibition at 10 μM / Inhibition at 20 μM / Inhibition at 50 μM / Inhibition at 100 μM / Inhibition at 15 μM: % inhibition of fungal growth, Botrytis conidia, resazurin; for Inhibition at 10 μM: peptide 10 μM; for Inhibition at 20 μM: peptide 20 μM; for Inhibition at 50 μM: peptide 50 μM; for Inhibition at 100 μM: peptide 100 μM; for Inhibition at 15 μM / active against Botrytis at 15 μM: peptide 15 μM
Protocol: The antifungal activity of 180 alpha-factor peptide variants towards Botrytis was tested. Experimental design:
Peptides corresponding to SEQ ID NO: 1-180 were chemically synthesized using the solid-phase synthesis method and resuspended in water to a stock solution of 1 mM. The stock solution was aliquoted in cryovials and stored at −80° C.
The Botrytis cinerea culture (B05.10) isolate was acquired from the Centraalbureau voor Schimmelcultures, the Netherlands. The Botrytis fungus was propagated on 0.5% V8 agar plates (200 ml V8 Juice, 3 g CaCO3, 15 g agar, 800-ml millipore water) at 20° C., in a 12 h photoperiod for 21 days.
Fungal conidia were harvested by scraping a Botrytis plate flooded with 1 ml water with 0.1% Tween 80 solution. Conidia were then collected in a 50 ml falcon tube by passing the solution through a 40 micron filter. The solution was then centrifuged at 6000 rpm and the pellet was resuspended in 1 ml of 20% glycerol. The conidia concentration of the resulting solution was counted using a hemocytometer. The stock was diluted to […] using 20% glycerol and frozen in 100 μl aliquots in −80° C. until further use.
Peptides were tested for activity against Botrytis, using the resazurin assay. For this, fungal stock conidia was first diluted to 5000 conidia/well. 50 μl of the spore suspension was added to each well of the sterile 96-well clear bottom testing plate and mixed with 50 μl of peptide solutions to a final concentration of 100, 50, 20, 15 and 10 μM. The plate was incubated for 24 h at 20° C. After 24 h, 10 μl of resazurin dye was added to the microtiter plate and incubated again for […]. Fluorescence was measured at 570/620 nm after 4 h of incubation with resazurin.
Growth inhibition was calculated by subtracting the fluorescence values of conidia only wells from sample wells and depicted as % inhibition of fungal growth. Four technical replicates were used for all treatments.

Compound: CC[C@H](C)[C@H](NC(=O)[C@H](CCC(N)=O)NC(=O)[C@H](CC(C)C)NC(=O)[C@H](Cc1c[nH]c2ccccc12)NC(=O)[C@H](Cc1c[nH]cn1)NC(=O)[C@@H](N)CCCCN)C(=O)N[C@@H](CCCCN)C(=O)N[C@@H](Cc1ccc(O)cc1)C(=O)NCC(=O)N[C@@H](CCC(=O)O)C(=O)N1CCC[C@H]1C(=O)N[C@@H](CCSC)C(=O)N[C@@H](Cc1ccc(O)cc1)C(=O)O [compound 7] (H-KHWLQIKYGEPMY-OH; N-terminus and C-terminus assumed)
- Inhibition at 10 μM: <90%
- Inhibition at 20 μM: <90%
- Inhibition at 50 μM: 100%
- Inhibition at 100 μM: 100%

Compound: CC[C@H](C)[C@H](NC(=O)[C@H](Cc1c[nH]c2ccccc12)NC(=O)[C@H](Cc1c[nH]cn1)NC(=O)[C@@H](N)CCCCN)C(=O)N[C@@H](CCCCN)C(=O)N[C@@H](CC(C)C)C(=O)N[C@@H](CCSC)C(=O)N1CCC[C@H]1C(=O)NCC(=O)N[C@@H](CCC(N)=O)C(=O)NCC(=O)N[C@@H](CCSC)C(=O)N[C@@H](Cc1ccc(O)cc1)C(=O)O [compound 8] (H-KHWIKLMPGQGMY-OH; N-terminus and C-terminus assumed)
- Inhibition at 10 μM: <90%
- Inhibition at 20 μM: <90%
- Inhibition at 50 μM: 100%
- Inhibition at 100 μM: 100%

Compound: CSCC[C@H](NC(=O)[C@@H]1CCCN1C(=O)[C@H](CCC(N)=O)NC(=O)CNC(=O)[C@@H]1CCCN1C(=O)[C@H](CCCCN)NC(=O)[C@H](Cc1ccccc1)NC(=O)[C@H](CCCNC(=N)N)NC(=O)[C@H](CC(C)C)NC(=O)[C@H](Cc1c[nH]c2ccccc12)NC(=O)[C@H](Cc1c[nH]cn1)NC(=O)[C@@H](N)CCCCN)C(=O)N[C@@H](Cc1ccc(O)cc1)C(=O)O [compound 9] (H-KHWLRFKPGQPMY-OH; N-terminus and C-terminus assumed)
- Inhibition at 10 μM: <90%
- Inhibition at 15 μM: 100%
- Inhibition at 20 μM: 100%
- Inhibition at 50 μM: 100%
- Inhibition at 100 μM: 100%
- active against Botrytis at 15 μM: active

Compound: CC[C@H](C)[C@H](NC(=O)[C@H](CCC(N)=O)NC(=O)[C@@H](NC(=O)[C@H](Cc1c[nH]c2ccccc12)NC(=O)[C@H](Cc1c[nH]cn1)NC(=O)[C@@H]1CCCN1)C(C)C)C(=O)N[C@@H](CCCCN)C(=O)N[C@@H](CC(C)C)C(=O)NCC(=O)N[C@@H](CCC(N)=O)C(=O)N1CCC[C@H]1C(=O)N[C@@H](CCSC)C(=O)N[C@@H](Cc1ccc(O)cc1)C(=O)O [compound 10] (H-PHWVQIKLGQPMY-OH; N-terminus and C-terminus assumed)
- Inhibition at 10 μM: <90%
- Inhibition at 20 μM: <90%
- Inhibition at 50 μM: 100%
- Inhibition at 100 μM: 100%

Compound: CC[C@H](C)[C@H](NC(=O)[C@H](Cc1c[nH]c2ccccc12)NC(=O)[C@H](Cc1c[nH]cn1)NC(=O)[C@@H](N)CCCCN)C(=O)N[C@H](C(=O)N[C@@H](Cc1ccccc1)C(=O)N[C@@H](CCCCN)C(=O)N1CCC[C@H]1C(=O)NCC(=O)N[C@@H](CCC(N)=O)C(=O)N1CCC[C@H]1C(=O)N[C@@H](CCSC)C(=O)N[C@@H](Cc1ccc(O)cc1)C(=O)O)[C@@H](C)O [compound 11] (H-KHWITFKPGQPMY-OH; N-terminus and C-terminus assumed)
- Inhibition at 10 μM: <90%
- Inhibition at 20 μM: <90%
- Inhibition at 50 μM: 100%
- Inhibition at 100 μM: 100%

Compound: CSCC[C@H](NC(=O)[C@@H]1CCCN1C(=O)[C@H](CCC(N)=O)NC(=O)CNC(=O)[C@@H]1CCCN1C(=O)[C@H](CCCCN)NC(=O)[C@H](Cc1ccccc1)NC(=O)[C@H](CCCNC(=N)N)NC(=O)[C@H](CC(C)C)NC(=O)[C@@H](NC(=O)[C@H](Cc1c[nH]cn1)NC(=O)[C@@H](N)CCCCN)C(C)C)C(=O)N[C@@H](Cc1ccc(O)cc1)C(=O)O [compound 12] (H-KHVLRFKPGQPMY-OH; N-terminus and C-terminus assumed)
- Inhibition at 10 μM: <90%
- Inhibition at 15 μM: 98.79%
- Inhibition at 20 μM: 99.94%
- Inhibition at 50 μM: 100%
- Inhibition at 100 μM: 100%
- active against Botrytis at 15 μM: active

Compound: CSCC[C@H](NC(=O)[C@@H]1CCCN1C(=O)[C@H](CCC(N)=O)NC(=O)CNC(=O)[C@@H]1CCCN1C(=O)[C@H](CCCCN)NC(=O)[C@H](Cc1ccccc1)NC(=O)[C@H](CCCCN)NC(=O)[C@H](CC(C)C)NC(=O)[C@H](Cc1c[nH]c2ccccc12)NC(=O)[C@H](Cc1c[nH]cn1)NC(=O)[C@@H](N)CCCCN)C(=O)N[C@@H](Cc1ccc(O)cc1)C(=O)O [compound 13] (H-KHWLKFKPGQPMY-OH; N-terminus and C-terminus assumed)
- Inhibition at 10 μM: <90%
- Inhibition at 15 μM: 100%
- Inhibition at 20 μM: 100%
- Inhibition at 50 μM: 100%
- Inhibition at 100 μM: 100%
- active against Botrytis at 15 μM: active

Compound: CSCC[C@H](NC(=O)[C@@H]1CCCN1C(=O)[C@H](CCC(N)=O)NC(=O)CNC(=O)[C@@H]1CCCN1C(=O)[C@H](Cc1c[nH]c2ccccc12)NC(=O)[C@H](CC(C)C)NC(=O)[C@H](CCCCN)NC(=O)[C@H](CC(C)C)NC(=O)[C@H](Cc1c[nH]c2ccccc12)NC(=O)[C@H](Cc1c[nH]cn1)NC(=O)[C@@H](N)CCCCN)C(=O)N[C@@H](Cc1ccc(O)cc1)C(=O)O [compound 14] (H-KHWLKLWPGQPMY-OH; N-terminus and C-terminus assumed)
- Inhibition at 10 μM: <90%
- Inhibition at 20 μM: <90%
- Inhibition at 50 μM: 100%
- Inhibition at 100 μM: 100%

Compound: CC[C@H](C)[C@H](NC(=O)[C@H](CCCCN)NC(=O)[C@H](CC(C)C)NC(=O)[C@@H](NC(=O)[C@H](Cc1c[nH]cn1)NC(=O)[C@@H](N)Cc1c[nH]c2ccccc12)[C@@H](C)O)C(=O)N[C@@H](CCCCN)C(=O)N[C@@H](CCCCN)C(=O)NCC(=O)N[C@@H](CCC(=O)O)C(=O)N1CCC[C@H]1C(=O)N[C@@H](CCSC)C(=O)N[C@@H](Cc1ccc(O)cc1)C(=O)O [compound 15] (H-WHTLKIKKGEPMY-OH; N-terminus and C-terminus assumed)
- Inhibition at 10 μM: <90%
- Inhibition at 20 μM: <90%
- Inhibition at 50 μM: 100%
- Inhibition at 100 μM: 100%

Compound: CSCC[C@H](NC(=O)CNC(=O)[C@H](CCC(N)=O)NC(=O)CNC(=O)[C@@H](NC(=O)[C@H](CCCCN)NC(=O)[C@H](Cc1ccccc1)NC(=O)[C@@H](NC(=O)[C@H](CC(C)C)NC(=O)[C@H](Cc1c[nH]c2ccccc12)NC(=O)[C@H](Cc1c[nH]cn1)NC(=O)[C@@H](N)Cc1c[nH]c2ccccc12)[C@@H](C)O)[C@@H](C)O)C(=O)N[C@@H](Cc1ccc(O)cc1)C(=O)O [compound 16] (H-WHWLTFKTGQGMY-OH; N-terminus and C-terminus assumed)
- Inhibition at 10 μM: <90%
- Inhibition at 20 μM: <90%
- Inhibition at 50 μM: 100%
- Inhibition at 100 μM: 100%

Compound: CSCC[C@H](NC(=O)[C@@H]1CCCN1C(=O)[C@H](CCC(N)=O)NC(=O)CNC(=O)[C@@H]1CCCN1C(=O)[C@H](Cc1c[nH]c2ccccc12)NC(=O)[C@H](CC(C)C)NC(=O)[C@H](CCCCN)NC(=O)[C@H](CC(C)C)NC(=O)[C@H](Cc1ccccc1)NC(=O)[C@H](Cc1c[nH]cn1)NC(=O)[C@@H](N)CCCCN)C(=O)N[C@@H](Cc1ccc(O)cc1)C(=O)O [compound 17] (H-KHFLKLWPGQPMY-OH; N-terminus and C-terminus assumed)
- Inhibition at 10 μM: <90%
- Inhibition at 20 μM: <90%
- Inhibition at 50 μM: 100%
- Inhibition at 100 μM: 100%

Compound: CSCC[C@H](NC(=O)[C@@H]1CCCN1C(=O)[C@H](CCC(N)=O)NC(=O)CNC(=O)[C@@H]1CCCN1C(=O)[C@H](CCCCN)NC(=O)[C@H](Cc1ccccc1)NC(=O)[C@H](CCCNC(=N)N)NC(=O)[C@H](CC(C)C)NC(=O)[C@H](Cc1ccccc1)NC(=O)[C@H](Cc1c[nH]cn1)NC(=O)[C@@H](N)CCCCN)C(=O)N[C@@H](Cc1ccc(O)cc1)C(=O)O [compound 18] (H-KHFLRFKPGQPMY-OH; N-terminus and C-terminus assumed)
- Inhibition at 10 μM: <90%
- Inhibition at 15 μM: 94.03%
- Inhibition at 20 μM: 99.67%
- Inhibition at 50 μM: 100%
- Inhibition at 100 μM: 100%
- active against Botrytis at 15 μM: active

Compound: CC[C@H](C)[C@H](NC(=O)[C@H](Cc1c[nH]c2ccccc12)NC(=O)[C@H](CCCCN)NC(=O)[C@@H]1CCCN1)C(=O)N[C@@H](CCCNC(=N)N)C(=O)N[C@@H](CC(C)C)C(=O)N[C@@H](CCCCN)C(=O)N1CCC[C@H]1C(=O)NCC(=O)N[C@@H](CCC(N)=O)C(=O)N1CCC[C@H]1C(=O)N[C@@H](CCSC)C(=O)N[C@@H](Cc1ccc(O)cc1)C(=O)O [compound 19] (H-PKWIRLKPGQPMY-OH; N-terminus and C-terminus assumed)
- Inhibition at 10 μM: <90%
- Inhibition at 20 μM: <90%
- Inhibition at 50 μM: 100%
- Inhibition at 100 μM: 100%
